Results as given in US6875759B1, “Substituted guanidines and the use thereof” (Kadmus Pharmaceuticals, priority 1999, dated 2005).
Like-named read-outs stand apart in the source and are kept apart here.

Columns and labels:
[1] = test system: pancreas cancer cell line HS766T; assay: In vitro cytotoxicity, MTS assay, pancreas cancer cells; assay type: cell-based, human; conditions: 7 days exposure, dose causing death to 50% of cells, read-out: Cell Survival ED 50 Pancreas
Method: (§1) In these experiments, cells were seeded at 400 cells per well 24 hours prior to addition of the test compound. Cells were grown at 37° C. in a humidified atmosphere of 95% air, 5% CO2 for 7 days with daily media changes. Cytotoxicity was assessed using the CellTiter 96 Aqueous Proliferation Assay (Promega, Madison, Wis.).

[2] = test system: human prostate (DU145) cancer cells; assay: Mitochondrial membrane depolarization, JC-1 flow cytometry, prostate cancer cells; assay type: cell-based; conditions: 25 μM, five hours following drug exposure
Method: FIGS. 5D-5F illustrate the effects of compound of Example 8 on human prostate cancer cells (DU145). Mitochondrial membrane depolarization was assessed by flow cytometry as measured by the fluorescence of cation, JC-1. Cells were exposed to 25 μM of the compound and fluorescence measured at: 0 hours (FIG. 5D), 2.5 hours (FIG. 5E) and 4.5 hours (FIG. 5F).
Mitochondrial membrane depolarization is an early event in apoptosis. […] These early changes in mitochondrial function can be detected using a fluorescent cation, JC-1, that emits a red color when sequestered in the mitochondria of healthy cells, or a green color when localized to the cytoplasm.
Human breast (HS578-T) and prostate (DU145) cancer cells were exposed to 25 μM of the compound of Example 8 for varying lengths of times. Both cell lines lost the capacity to sequester JC-1 in the mitochondrial compartment as indicated by a time-dependent increase in green vs. red fluorescence (FIGS. 5A-5F). In an attempt to better quantitate the results of these experiments, the scans were divided into quadrants. At time 0, greater than 90% of the dye was localized in the mitochondria in both breast and prostate cancer cells. By five hours following drug exposure, the mitochondria from the prostate and breast cells contained only 33% and 22% of the dye, respectively.

[3] = test system: normal human endothelial cells (AH-9); assay: In vitro cytotoxicity, MTS assay, normal endothelial cells; assay type: cell-based; conditions: AH-9 normal endothelial cells; separate experiment (FIG. 1); seven days; read-out: EC50 cytotoxic activity
Method: (§2) FIG. 1 is a graph which compares the effects of the compound of Example 8 on normal human endothelial cells (AH-9) and human prostate cancer cells (DU145). Cells were exposed to the compound for seven days at the concentrations indicated. Cytotoxicity was assessed using the MTS assay.
(§3) In a separate experiment (FIG. 1), normal human endothelial cells (AH-9) and human prostate cancer cells (DU145) were exposed to increasing concentrations of the compound of Example 8 for seven days.

[4] = test system: hormone-independent prostate cancer cell line DU145; assay: In vitro cytotoxicity, MTS (CellTiter 96 Aqueous Proliferation Assay), prostate cancer cells; assay type: cell-based, human
Method: as §2, §1, §3

[5] = test system: breast cancer cell line HS578T; assay: In vitro cytotoxicity, MTS assay, breast cancer cells; assay type: cell-based, human; conditions: 7 days exposure, dose causing death to 50% of cells, read-out: Cell Survival ED 50 Breast
Method: as §1

Cc1ccc(N=C(Nc2ccc(C)cc2)N2CCN(C/C=C/c3ccccc3)CC2)cc1 [Example 8, 1-[(N,N′-Di-p-tolyl)amidino]-(trans-1′-cinnamyl)piperizine]
EC50 [1]: 1.8 µM | JC-1 dye contained in mitochondria [2]: 33% | EC50 [3]: 95 µM | EC50 ([4]; 7 days exposure, MTS, dose causing death to 50% of cells, read-out: Cell Survival ED 50 Prostate): 1.3 µM | EC50 ([4]; separate experiment (FIG. 1), seven days, read-out: EC50 cytotoxic activity): 3.4 µM | EC50 [5]: 2.3 µM
